# Tests used:
# [1] = organism: Homo sapiens; assay: Selectivity for p38alpha MAP kinase (unknown origin) over ZAK (unknown origin)
# [2] = organism: Homo sapiens; assay: Selectivity for p38alpha MAP kinase (unknown origin) over WNK2 (unknown origin)
# [3] = organism: Homo sapiens; assay: Selectivity for p38alpha MAP kinase (unknown origin) over VEGF-R1 (unknown origin)
# [4] = organism: Homo sapiens; assay: Selectivity for p38alpha MAP kinase (unknown origin) over TTK (unknown origin)
# [5] = organism: Homo sapiens; assay: Selectivity for p38alpha MAP kinase (unknown origin) over TIE2 (unknown origin)
# [6] = organism: Homo sapiens; assay: Selectivity for p38alpha MAP kinase (unknown origin) over TGFB-R2 (unknown origin)
# [7] = organism: Homo sapiens; assay: Selectivity for p38alpha MAP kinase (unknown origin) over TEC (unknown origin)
# [8] = organism: Homo sapiens; assay: Selectivity for p38alpha MAP kinase (unknown origin) over SGK3 (unknown origin)
# [9] = organism: Homo sapiens; assay: Selectivity for p38alpha MAP kinase (unknown origin) over SGK1 (unknown origin)
# [10] = organism: Homo sapiens; assay: Selectivity for p38alpha MAP kinase (unknown origin) over RPS6KA5 (unknown origin)
# [11] = organism: Homo sapiens; assay: Selectivity for p38alpha MAP kinase (unknown origin) over RPS6KA1 (unknown origin)
# [12] = organism: Homo sapiens; assay: Selectivity for p38alpha MAP kinase (unknown origin) over ROS (unknown origin)
# [13] = organism: Homo sapiens; assay: Selectivity for p38alpha MAP kinase (unknown origin) over RON (unknown origin)
# [14] = organism: Homo sapiens; assay: Selectivity for p38alpha MAP kinase (unknown origin) over CDK1/CycB1 (unknown origin)
# [15] = organism: Homo sapiens; assay: Selectivity for p38alpha MAP kinase (unknown origin) over BTK (unknown origin)
# [16] = organism: Homo sapiens; assay: Selectivity for p38alpha MAP kinase (unknown origin) over BMPR1A (unknown origin)
# [17] = organism: Homo sapiens; assay: Selectivity for p38alpha MAP kinase (unknown origin) over ASK1 (unknown origin)
# [18] = organism: Homo sapiens; assay: Selectivity for p38alpha MAP kinase (unknown origin) over ARK5 (unknown origin)
# [19] = organism: Homo sapiens; assay: Selectivity for p38alpha MAP kinase (unknown origin) over ABL1 Q252H mutant (unknown origin)
# [20] = organism: Homo sapiens; assay: Selectivity for p38alpha MAP kinase (unknown origin) over ROCK1 (unknown origin)
# [21] = organism: Homo sapiens; assay: Selectivity for p38alpha MAP kinase (unknown origin) over PKC-nu (unknown origin)
# [22] = organism: Homo sapiens; assay: Selectivity for p38alpha MAP kinase (unknown origin) over PCTAIRE1 (unknown origin)
# [23] = organism: Homo sapiens; assay: Selectivity for p38alpha MAP kinase (unknown origin) over PASK (unknown origin)
# [24] = organism: Homo sapiens; assay: Selectivity for p38alpha MAP kinase (unknown origin) over PAK2 (unknown origin)
# [25] = organism: Homo sapiens; assay: Selectivity for p38alpha MAP kinase (unknown origin) over PAK1 (unknown origin)
# [26] = target: T1, Mitogen-activated protein kinase 14 (Homo sapiens, UniProt Q16539); assay: Competitive inhibition of p38alpha MAP kinase (unknown origin) in presence of 100 uM ATP
# T1 sequence (Q16539 whole entry): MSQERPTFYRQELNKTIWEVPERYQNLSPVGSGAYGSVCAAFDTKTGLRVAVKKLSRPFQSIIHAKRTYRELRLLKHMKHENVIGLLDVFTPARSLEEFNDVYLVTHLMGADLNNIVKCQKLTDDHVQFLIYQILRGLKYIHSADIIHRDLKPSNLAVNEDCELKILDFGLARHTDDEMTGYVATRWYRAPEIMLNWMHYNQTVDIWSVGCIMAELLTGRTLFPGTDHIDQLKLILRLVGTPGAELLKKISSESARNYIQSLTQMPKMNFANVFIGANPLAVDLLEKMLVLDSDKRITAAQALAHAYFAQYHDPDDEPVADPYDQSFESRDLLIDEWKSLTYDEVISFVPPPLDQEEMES
# [27] = target: T1, Mitogen-activated protein kinase 14; assay: Inhibition of p38alpha MAP kinase in human whole blood assessed as inhibition of LPS-induced TNFalpha release by ELISA
# [28] = target: Mitogen-activated protein kinase 11 (Homo sapiens) (UniProt Q15759); assay: Inhibition of p38beta MAP kinase (unknown origin) at 10 uM
# Chain of Mitogen-activated protein kinase 11 (Homo sapiens) (Q15759 whole entry): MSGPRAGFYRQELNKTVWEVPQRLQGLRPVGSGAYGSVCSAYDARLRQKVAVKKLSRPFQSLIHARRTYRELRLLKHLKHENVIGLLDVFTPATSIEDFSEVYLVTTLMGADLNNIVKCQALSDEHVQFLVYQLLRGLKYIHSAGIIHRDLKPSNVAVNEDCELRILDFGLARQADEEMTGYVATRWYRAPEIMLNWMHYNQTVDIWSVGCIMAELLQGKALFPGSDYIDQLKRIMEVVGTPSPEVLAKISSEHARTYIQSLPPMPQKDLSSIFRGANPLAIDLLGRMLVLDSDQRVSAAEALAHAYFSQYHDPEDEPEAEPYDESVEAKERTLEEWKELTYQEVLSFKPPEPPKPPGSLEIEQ
# [29] = organism: Homo sapiens; assay: Selectivity for p38alpha MAP kinase (unknown origin) over MINK1 (unknown origin)
# [30] = organism: Homo sapiens; assay: Selectivity for p38alpha MAP kinase (unknown origin) over wild type MET (unknown origin)
# [31] = organism: Homo sapiens; assay: Selectivity for p38alpha MAP kinase (unknown origin) over MET D1228H mutant (unknown origin)
# [32] = organism: Homo sapiens; assay: Selectivity for p38alpha MAP kinase (unknown origin) over MERTK (unknown origin)
# [33] = organism: Homo sapiens; assay: Selectivity for p38alpha MAP kinase (unknown origin) over MEK1 (unknown origin)
# [34] = organism: Homo sapiens; assay: Selectivity for p38alpha MAP kinase (unknown origin) over LCK (unknown origin)
# [35] = organism: Homo sapiens; assay: Selectivity for p38alpha MAP kinase (unknown origin) over HCK (unknown origin)
# [36] = organism: Homo sapiens; assay: Selectivity for p38alpha MAP kinase (unknown origin) over GRK7 (unknown origin)
# [37] = organism: Homo sapiens; assay: Selectivity for p38alpha MAP kinase (unknown origin) over wild type FLT3 (unknown origin)
# [38] = organism: Homo sapiens; assay: Selectivity for p38alpha MAP kinase (unknown origin) over FGR (unknown origin)
# [39] = organism: Homo sapiens; assay: Selectivity for p38alpha MAP kinase (unknown origin) over ERBB4 (unknown origin)
# [40] = organism: Homo sapiens; assay: Selectivity for p38alpha MAP kinase (unknown origin) over EPHB1 (unknown origin)
# [41] = organism: Homo sapiens; assay: Selectivity for p38alpha MAP kinase (unknown origin) over EPHA8 (unknown origin)
# [42] = organism: Homo sapiens; assay: Selectivity for p38alpha MAP kinase (unknown origin) over EPHA1 (unknown origin)
# [43] = organism: Homo sapiens; assay: Selectivity for p38alpha MAP kinase (unknown origin) over EGFR G719S mutant (unknown origin)
# [44] = organism: Homo sapiens; assay: Selectivity for p38alpha MAP kinase (unknown origin) over EGFR G719C mutant (unknown origin)
# [45] = organism: Homo sapiens; assay: Selectivity for p38alpha MAP kinase (unknown origin) over EGFR 747 to 752 deletion/P753S mutant (unknown origin)
# [46] = organism: Homo sapiens; assay: Selectivity for p38alpha MAP kinase (unknown origin) over DNA-PK (unknown origin)
smiles,measurement,setting,value
Cc1cc(F)c(NC(=O)c2ccsc2)cc1Nc1ccc2c(c1)OCc1ccc(OC[C@H](O)CO)cc1C2=O,Selectivity ratio,[1],> 1000
same,Selectivity ratio,[2],> 1000
same,Selectivity ratio,[3],> 1000
same,Selectivity ratio,[4],> 1000
same,Selectivity ratio,[5],> 1000
same,Selectivity ratio,[6],> 1000
same,Selectivity ratio,[7],> 1000
same,Selectivity ratio,[8],> 1000
same,Selectivity ratio,[9],> 1000
same,Selectivity ratio,[10],> 1000
same,Selectivity ratio,[11],> 1000
same,Selectivity ratio,[12],> 1000
same,Selectivity ratio,[13],> 1000
same,Selectivity ratio,[14],> 1000
same,Selectivity ratio,[15],> 1000
same,Selectivity ratio,[16],> 1000
same,Selectivity ratio,[17],> 1000
same,Selectivity ratio,[18],> 1000
same,Selectivity ratio,[19],> 1000
same,Selectivity ratio,[20],> 1000
same,Selectivity ratio,[21],> 1000
same,Selectivity ratio,[22],> 1000
same,Selectivity ratio,[23],> 1000
same,Selectivity ratio,[24],> 1000
same,Selectivity ratio,[25],> 1000
same,IC50,[26],1.6 nM
same,IC50,[27],125 nM
same,inhibition,[28],> 50%
same,Selectivity ratio,[29],> 1000
same,Selectivity ratio,[30],> 1000
same,Selectivity ratio,[31],> 1000
same,Selectivity ratio,[32],> 1000
same,Selectivity ratio,[33],> 1000
same,Selectivity ratio,[34],> 1000
same,Selectivity ratio,[35],> 1000
same,Selectivity ratio,[36],> 1000
same,Selectivity ratio,[37],> 1000
same,Selectivity ratio,[38],> 1000
same,Selectivity ratio,[39],> 1000
same,Selectivity ratio,[40],> 1000
same,Selectivity ratio,[41],> 1000
same,Selectivity ratio,[42],> 1000
same,Selectivity ratio,[43],> 1000
same,Selectivity ratio,[44],> 1000
same,Selectivity ratio,[45],> 1000
same,Selectivity ratio,[46],> 1000
